Test system: SNU-C5/WT
Conditions: mouse, in vivo

O=c1[nH]cc(F)c(=O)[nH]1 [5FU, 5-fluorouracil]
cell proliferation of tumor cells (Ki67 fluorescence staining): not able to decrease the proliferative ability of tumor cells | tumor formation (tumor volume): does not effectively inhibit tumor formation

— patent US20220380477A1 (priority 2019, published 2022)
